According to patent US11007355B2 (TARIS Biomedical LLC, priority 2012, dated 2021):
Values joined by “and” are separate entries in the source; they are usually repeats but may differ in a detail not shown here. Equal values may be shown once. “Also recorded” adds a separate entry of the source. Read-outs that look alike come from different tables or passages of the source.

Tests used:
[1] = system: male Sprague Dawley rats; assay: Bladder tolerability in rats: clinical observations during perfusion and tissue observations at necropsy (Example 1); format: in vivo, rat
Procedure: For each drug, each test group included three male rats. The perfusate drug concentration was set to 0.3 mg/mL and the perfusion rate used was 300 μL/hour over the test periods.
Perfusion solutions were prepared by dissolving each drug substance into an appropriate volume of saline. The finals doses administered are summarized below.

[2] = Platinum content of blood, urine and terminal tissues by ICP-MS after bladder perfusion or IV bolus (Example 1); format: in vivo, rat
[3] = system: male Sprague Dawley rats; conditions: 72-hour bladder perfusion
Procedure: (§1) Blood, urine, and tissue samples were collected and analyzed for drug content.
(§2) The perfusate formulation concentration was 0.308 mg/mL. Dose (mg/kg) was calculated as (Dose administered (g) x formulation concentration (mg/mL))/Animal Wt. (kg). The drug solutions were dosed over a 72-hour period into the non-fasted animal's bladder by intra-urinary bladder cannula using an infusion pump.
(§3) Whole blood samples were taken via tailnick or jugular vein cannula at the following time points following the start of perfusion: 0, 4, 8, 24, and 48 hours. Urine was collected pre-dose and for 0-24, 24-48, and 48-72-hour periods post dose.
(§4) Following the 72-hour infusion period the animals were sacrificed, terminal blood samples were taken via the abdominal aorta, and bladder, prostate, ureter, and kidney tissues were collected, weighed, and visually inspected for evidence of tolerability/reaction from exposure to the drug.

[4] = Oxaliplatin tissue permeability: platinum in blood, urine and tissues after 72-hour bladder perfusion (Example 2)
Procedure: as §1, §2, §3, §4

[5] = Group 1: 24-hr bladder perfusion, 0.3 mg/mL
[6] = Group 2: 72-hr bladder perfusion, 0.3 mg/mL
[7] = Group 4: IV bolus with saline perfusion via cannula
[8] = 0.308 mg/mL, individual animals 47, 48, 49

In the case of `N.N.O=C([O-])C1(C(=O)[O-])CCC1.[Pt+2]` [carboplatin], the “Tissue Observations at Necropsy: bladder lumen erythemic discoloration (grade)” value (“Tissue Observations at Necropsy … (grade)” for short) [1, 5] is reported as “Bladder lumen: slight to mild”, the “Tissue Observations at Necropsy: erythemic discoloration, share of lumen” value (“Tissue Observations at Necropsy … of lumen” below) [1, 5] is reported as 10-30 % of lumen and the “Tissue Observations at Necropsy: evidence of tissue edema/thickened bladder walls” value [1, 5] is reported as “no”. The “Clinical Observations of note during Perfusion” value (from here on “Clinical Observations”) ([1]; Group 1: 24-hr perfusion via cannula to bladder dome, 0.3 mg/mL, 300 μL/hour, 3 male rats) was “Normal”, the “Tissue Observations at Necropsy … (grade)” value [1, 6] was “Bladder lumen: slight to mild” and the “Tissue Observations at Necropsy … of lumen” value [1, 6] was 10-30 % of lumen. The “Tissue Observations at Necropsy: evidence of tissue edema/thickened bladder walls” value [1, 6] was “no”, the “Clinical Observations” value ([1]; Group 2: 72-hr perfusion via cannula to bladder dome, 0.3 mg/mL, 300 μL/hour, 3 male rats) was “Normal” and the “Tissue Observations at Necropsy … (grade)” value [1, 7] was “Bladder lumen: slight generalized”. For the same compound, the “Tissue Observations at Necropsy … of lumen” value [1, 7] was “erythemic discoloration, 5-10% of lumen”, the “Clinical Observations” value ([1]; Group 4: IV bolus with saline perfusion via cannula, 3 male rats) was “Red tinted urine” and the “Appearance of animals during perfusion period” value ([1]; all dosed animals (Groups 1, 2, 4)) was “all animals appeared normal”. For the same compound, the “Bladder tolerability and tissue permeability criteria (overall)” value ([1]; bladder perfusion, Example 1) was “meet only one or other of these criteria”, the “Blood profile (platinum)” value ([2]; IV bolus, FIG. 8) was “significant peak systemic platinum exposure followed by a sharp decay” and the “Amount in the IV bolus terminal phase as compared with cisplatin” value ([2]; IV bolus, blood) was “one quarter less”. For the same compound, the “Therapeutic tissue platinum concentrations by intravesical perfusion” value ([2]; bladder perfusion 0.3 mg/mL) was “does not achieve therapeutic tissue platinum concentrations”, the “Observed plasma levels (blood profile, platinum)” value ([2]; bladder perfusion groups, FIG. 8) was “near the limit of the assay detection (twice the limits of detection) to below the quantitation limit” and the “Tissue levels (terminal platinum concentrations) compared with cisplatin” value ([2]; bladder perfusion, FIG. 9) was “consistently less than those observed following cisplatin bladder perfusion”. For the same compound, the “Bladder tissue concentrations relative to IC50” value ([2]; bladder perfusion, terminal bladder tissue) was “below the IC50 of carboplatin”.
For `N.N.[Cl][Pt][Cl]` [cisplatin], the “Clinical Observations” value ([1]; rat, in vivo, iv) was “Normal”, the “Tissue Observations at Necropsy (overall)” value ([1]; rat, in vivo, iv) was “No observations” and the “Bladder platinum concentrations, 72 hr perfusions compared to 24 hr perfusions” value ([2]; rat, in vivo) was “Significantly higher and more variable”. For the same compound, the “Blood profile (platinum, whole blood)” value ([2]; rat, in vivo) was “rising blood levels”.
With `O=C1[O][Pt]2([NH][C@@H]3CCCC[C@H]3[NH]2)[O]C1=O` [oxaliplatin] the “Appearance of animals throughout the study” value ([3]; 0.308 mg/mL) was “All animals appeared normal”, the “Observations at necropsy: erythemia (animal 48: erythemia and edema) on inside wall of bladder associated with the bladder cannula” value ([3]; 0.308 mg/mL, individual animals 47, 48) was “bladder associated with the bladder cannula mild; also recorded: bladder associated with the bladder cannula moderate” and the “Observations at necropsy: erythemia of bladder surface (grade)” value [3, 8] was “Slight erythemia; also recorded: Slight erythemic”. For the same compound, the “Observations at necropsy: erythemia, share of surface” value [3, 8] was 20 % of surface (2×) and < 5 % of surface, the “Bladder tolerability and tissue permeability criteria (overall)” value ([3]; Example 2) was “both bladder tolerability and tissue permeability” and the “Blood and kidney platinum concentrations, in contrast to cisplatin” value ([4]; 72-hour bladder perfusion) was “Comparatively low”. For the same compound, the “Bladder platinum concentrations compared to cisplatin and carboplatin” value ([4]; 72-hour bladder perfusion, FIGS. 12A-12B) was “significant platinum bladder concentrations”, the “Platinum concentration in the kidney or prostate” value ([4]; 72-hour bladder perfusion, terminal tissues) was “No appreciable platinum concentration” and the “Blood concentrations (blood profile) compared with cisplatin and carboplatin” value ([4]; 72 hour bladder perfusion, FIG. 10) was “fell between cisplatin and carboplatin”.
